Patent publication US20080318943A1, “Compounds and Uses Thereof - 848” (ASTRAZENECA AB, priority 2007, published 2008)

Columns and labels:
[1] = biological target: T1, GABAA2 receptors (α2, β3, γ2 receptor subunits transfected into Sf9 cells) (Homo sapiens, UniProt P18507+P47869); assay: GABAA2 Binding Method ([3H]-Flunitrazepam displacement); settings: [3H]-Flunitrazepam ~2 nM, α2β3γ2 Sf9 membranes, 1 hr at 4° C.
T1 construct: host or cells: Sf9 cells (membranes)
Experimental: In some embodiments, the binding test is directed to a subtype of GABAA receptors, such as GABAA1 receptors (i.e., those containing the α1 subunit), GABAA2 receptors (i.e., those containing the α2 subunit), GABAA3 receptors (i.e., those containing the α3 subunit) and GABAA5 receptors (i.e., those containing the α5 subunit).
[^3H]-Flunitrazepam (Cat #NET567): Prepare 10× stock=20 nM, [F} in assay=˜2 nM
1. […] Add 5 ul of 30 uM flumazenil to wells 12 D-E for 50% control wells.
5. Add 25 μl [^3H]-Flunitrazepam (Automation Program 6). Incubate for 1 hr at 4° C.
6. Collect membranes on a cell harvester onto GF/B filter plates (pre-wet with dH2O and wash 5×400 μl/well, with cold assay buffer. (First 3 washes are considered hot; last two are cold.)
Data is analyzed by calculating percent of control, IC50, and Ki in an XLfit template. The following formula is used in the templates: […]

GABAA receptor α1β2γ2 = biological target: T2, GABAA receptor α1β2γ2 (Homo sapiens, UniProt P14867+P18507); assay: Two-electrode voltage-clamp potentiation of GABA EC10 current in Xenopus oocytes, GABAA1; assay type: cell-based; settings: percentage potentiation of GABA EC10 current divided by that of diazepam
T2 construct: expressed in transfected cells; host or cells: Xenopus laevis oocytes injected with cRNA
T2 sequence (P14867 28-456): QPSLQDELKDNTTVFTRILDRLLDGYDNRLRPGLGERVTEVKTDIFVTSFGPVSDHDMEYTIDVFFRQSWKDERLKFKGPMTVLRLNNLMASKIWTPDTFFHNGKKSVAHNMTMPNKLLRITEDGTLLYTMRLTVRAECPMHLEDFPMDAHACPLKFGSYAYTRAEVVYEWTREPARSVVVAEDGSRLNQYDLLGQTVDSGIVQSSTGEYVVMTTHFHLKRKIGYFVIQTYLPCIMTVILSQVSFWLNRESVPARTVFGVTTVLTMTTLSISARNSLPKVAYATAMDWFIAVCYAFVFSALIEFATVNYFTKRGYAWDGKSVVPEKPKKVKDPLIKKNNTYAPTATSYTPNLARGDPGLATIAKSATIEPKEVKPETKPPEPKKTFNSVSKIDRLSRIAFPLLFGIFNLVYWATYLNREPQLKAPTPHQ
T2 sequence (P47870 25-512 partner limits assumed): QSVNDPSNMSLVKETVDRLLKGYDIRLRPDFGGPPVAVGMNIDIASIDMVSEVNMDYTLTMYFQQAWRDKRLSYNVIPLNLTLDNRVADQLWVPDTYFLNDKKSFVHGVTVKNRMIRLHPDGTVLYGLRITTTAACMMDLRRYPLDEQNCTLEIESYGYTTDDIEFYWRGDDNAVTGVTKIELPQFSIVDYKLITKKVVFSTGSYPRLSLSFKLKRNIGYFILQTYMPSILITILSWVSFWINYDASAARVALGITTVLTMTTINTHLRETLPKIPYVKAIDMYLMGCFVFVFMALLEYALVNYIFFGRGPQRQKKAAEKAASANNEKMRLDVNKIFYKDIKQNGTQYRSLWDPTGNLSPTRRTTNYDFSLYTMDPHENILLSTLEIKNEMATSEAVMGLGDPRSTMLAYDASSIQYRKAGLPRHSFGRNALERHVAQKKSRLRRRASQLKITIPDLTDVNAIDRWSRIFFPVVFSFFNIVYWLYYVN
T2 sequence (P18507 40-475): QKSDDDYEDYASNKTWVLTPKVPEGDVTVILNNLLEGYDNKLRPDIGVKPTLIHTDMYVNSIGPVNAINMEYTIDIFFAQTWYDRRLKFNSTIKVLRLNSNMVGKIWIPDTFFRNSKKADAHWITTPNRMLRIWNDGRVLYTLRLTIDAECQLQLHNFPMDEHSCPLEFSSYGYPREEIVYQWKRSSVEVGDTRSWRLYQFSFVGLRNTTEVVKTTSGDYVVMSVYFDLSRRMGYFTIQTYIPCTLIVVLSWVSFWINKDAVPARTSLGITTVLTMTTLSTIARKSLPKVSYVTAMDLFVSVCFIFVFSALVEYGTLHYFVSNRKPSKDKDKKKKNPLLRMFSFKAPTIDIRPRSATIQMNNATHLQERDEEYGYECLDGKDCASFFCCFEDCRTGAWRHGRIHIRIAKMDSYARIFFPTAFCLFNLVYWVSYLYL
Experimental: GABAA receptors were heterologously expressed in Xenopus oocytes by injecting cRNA corresponding to human α1, α2, α3, α5, β2, P3 and γ2 subunits of the GABAA receptor genes. The specific subunit combinations (subtypes) were as follows: α1β2γ2, α2β3γ2, α3β3γ2, and α5β3γ2. The EC10 of GABA is approximated for each cell. Stability of GABA-mediated (EC10) current is established. Modulatory effect of test compound is determined and compared across subtypes. […] Thus, the assay can characterize modulatory effects and determine subtype selectivity of test compounds on major subtypes of GABAA receptors.
Xenopus laevis frogs (Xenopus I, Kalamazoo, Mich.) were anesthetized using 0.15% tricaine. Surgically removed ovarian lobes were teased out in OR2 solution (82 NaCl, 2.5 KCl, 5 HEPES, 1.5 NaH2PO4, 1 MgCl2, 0.1 EDTA, in mM, pH 7.4). The oocytes were defolliculated by incubation in 25 mL OR2 containing 0.2% collagenase 1A (SIGMA) two times for about 60 minutes on a platform shaker and stored in Leibovitz's L-15 medium. Oocytes were injected the following day in 0.5× Leibovitz's L-15 medium containing […] gentamycin, 10 units/ml penicillin, and […] streptomycin.
Capped cRNAs from the linearized vectors containing human α1, β2 and γ2 subunits of the GABAA receptor genes were mixed in ratio of […]. Oocytes were injected with 25-50 nL of mixed RNA with an appx molar ratio for α1, β2, and γ2 as 1:1:10. Oocyte recordings were done 2-10 days after injection. The same methods apply to subtypes derived from α2β3γ2, α3β3γ2, and α5β3γ2, except for 1:1:1 ratio was used for α, β, and γ subunits.
All measurements were done in a medium containing ND-96 (96 NaCl, 2 KCl, 1.8 CaCl2.2H2O, 1 MgCl2.6H2O, 5 HEPES, in mM, pH 7.5). Two-electrode voltage-clamp recording was carried out using OpusXpress amplifier (Axon Instruments, Foster City, Calif.), which allows simultaneous recording from 8 oocytes. Oocytes were impaled with two electrodes of 1-2 MΩ tip resistance when filled with 3M KCl. Recordings were begun when membrane potential became stable at potentials negative to −50-−60 mV. Membrane potential was held at −60 mV. […] The concentration of GABA corresponded to the EC10 value calculated for each oocyte. The modulator pulses started 30 s before the GABA pulse so as to allow preincubation with the modulator. A set of 3 pulses with just GABA without modulator was given prior to the modulator-containing pulses to define the baseline GABA response. Two oocytes per each experiment were dedicated to observe the effect of diazepam on GABA response to ensure the presence of γ2 subunit in the GABAA pentameric complex, which imparts diazepam sensitivity to the complex.
Current amplitude (i) was measured from baseline to peak using Clampfit (Axon Inst., Foster City, Calif.). Potentiation was calculated as percent change from the baseline GABA current flux 100×(imod/icontrol)−1) where imod=current mediated by modulator+GABA and icontrol=current mediated by GABA alone. […] Similarly, a value of −50% potentiation means the presence of modulator caused a 50% decrease in the control current. Various other data shown here were fitted and plotted using GraphPad Prism (GraphPad Software, Inc. San Diego, Calif.). The percentage potentiation was converted to relative potentiation by dividing it with percentage potentiation value obtained from the same assay with diazepam as a control.

T1 sequence (P47869 29-451): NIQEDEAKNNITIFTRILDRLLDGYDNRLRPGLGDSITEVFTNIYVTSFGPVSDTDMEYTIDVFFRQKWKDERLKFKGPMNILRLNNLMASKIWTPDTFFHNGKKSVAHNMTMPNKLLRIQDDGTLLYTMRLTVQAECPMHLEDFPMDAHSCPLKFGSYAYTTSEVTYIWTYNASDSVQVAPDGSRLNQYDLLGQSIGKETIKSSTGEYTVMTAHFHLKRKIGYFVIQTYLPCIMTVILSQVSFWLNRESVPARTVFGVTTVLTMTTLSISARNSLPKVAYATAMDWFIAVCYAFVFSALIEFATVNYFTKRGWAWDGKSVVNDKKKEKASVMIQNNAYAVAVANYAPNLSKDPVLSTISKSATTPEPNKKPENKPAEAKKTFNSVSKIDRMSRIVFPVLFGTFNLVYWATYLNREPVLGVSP
T1 sequence (P28472 26-473 partner): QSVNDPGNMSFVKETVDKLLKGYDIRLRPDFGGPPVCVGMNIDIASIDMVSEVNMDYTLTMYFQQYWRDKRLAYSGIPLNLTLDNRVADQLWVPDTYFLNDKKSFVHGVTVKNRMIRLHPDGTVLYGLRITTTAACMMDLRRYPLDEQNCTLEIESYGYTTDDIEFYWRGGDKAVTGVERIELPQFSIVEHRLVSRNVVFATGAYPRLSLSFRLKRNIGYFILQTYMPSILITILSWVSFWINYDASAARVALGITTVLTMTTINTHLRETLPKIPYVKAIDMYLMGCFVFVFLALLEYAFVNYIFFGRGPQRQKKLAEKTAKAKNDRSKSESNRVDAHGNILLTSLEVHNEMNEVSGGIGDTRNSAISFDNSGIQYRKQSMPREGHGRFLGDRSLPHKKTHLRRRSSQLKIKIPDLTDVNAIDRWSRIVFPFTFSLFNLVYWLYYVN
T1 sequence (P18507 40-475): as the sequence (P18507 40-475) above

SMILES | Ki [1] | Relative Potentiation for GABAA1 (GABAA receptor α1β2γ2)
COc1ccc(CN2Cc3nc4c(-c5cc(F)ccc5OC)cccc4c(N)c3C2=O)cc1 [9-amino-5-(5-fluoro-2-methoxyphenyl)-2-(4-methoxybenzyl)-2,3-dihydro-1H-pyrrolo[3,4-b]quinolin-1-one] | 46.3 nM | 0.39
COc1ccc(C)cc1-c1cccc2c(N)c3c(nc12)CN(C1CC1)C3=O [9-amino-2-cyclopropyl-5-(2-methoxy-5-methylphenyl)-2,3-dihydro-1H-pyrrolo[3,4-b]quinolin-1-one] | 4.76 nM | 0.28
CCCN1Cc2nc3c(-c4ccccc4Cl)cccc3c(N)c2C1=O [9-amino-5-(2-chlorophenyl)-2-propyl-2,3-dihydro-1H-pyrrolo[3,4-b]quinolin-1-one] | 4.82 nM | 0.35
COc1ccc(C)cc1-c1cccc2c(N)c3c(nc12)CN(C1CCC1)C3=O [9-amino-2-cyclobutyl-5-(2-methoxy-5-methylphenyl)-2,3-dihydro-1H-pyrrolo[3,4-b]quinolin-1-one] | 4.07 nM | 0.19
COc1ccncc1-c1cccc2c(N)c3c(nc12)CN(C1CC1)C3=O [9-amino-2-cyclopropyl-5-(4-methoxypyridin-3-yl)-2,3-dihydro-1H-pyrrolo[3,4-b]quinolin-1-one] | 8.1 nM | 0.21
COc1ccc(CN2Cc3nc4c(-c5cccnc5OC)cccc4c(N)c3C2=O)cc1Cl [9-amino-2-(3-chloro-4-methoxybenzyl)-5-(2-methoxypyridin-3-yl)-2,3-dihydro-1H-pyrrolo[3,4-b]quinolin-1-one] | 9.89 nM | 0.25
COc1ccc(-c2cccc3c(N)c4c(nc23)CN(Cc2ccc(OC)c(OC)c2)C4=O)c(C)n1 [9-amino-2-(3,4-dimethoxybenzyl)-5-(6-methoxy-2-methylpyridin-3-yl)-2,3-dihydro-1H-pyrrolo[3,4-b]quinolin-1-one] | 4.7 nM | 0.26
COc1ccc(CN2Cc3nc4c(-c5ccc(C)nc5C)cccc4c(N)c3C2=O)cc1OC [9-amino-2-(3,4-dimethoxybenzyl)-5-(2,6-dimethylpyridin-3-yl)-2,3-dihydro-1H-pyrrolo[3,4-b]quinolin-1-one] | 2.7 nM | 0.21
CCCN1Cc2nc3c(-c4cccnc4OCC)cccc3c(N)c2C1=O [9-amino-5-(2-ethoxypyridin-3-yl)-2-propyl-2,3-dihydro-1H-pyrrolo[3,4-b]quinolin-1-one] | 15 nM | 0.56
COc1ccc(OC)c(-c2cccc3c(N)c4c(nc23)CN(Cc2ccc3c(c2)OCO3)C4=O)c1 [9-amino-2-(benzo[d][1,3]dioxol-5-ylmethyl)-5-(2,5-dimethoxyphenyl)-2,3-dihydro-1H-pyrrolo[3,4-b]quinolin-1-one] | 60.6 nM | 0.33
COc1ccc(C)cc1-c1c(F)ccc2c(N)c3c(nc12)CN(C1CC1)C3=O [9-amino-2-cyclopropyl-6-fluoro-5-(2-methoxy-5-methylphenyl)-2,3-dihydro-1H-pyrrolo[3,4-b]quinolin-1-one] | 7.65 nM | 0.23
CCCN1Cc2nc3c(-c4ccc5[nH]ccc5c4)cccc3c(N)c2C1=O [9-amino-5-(1H-indol-5-yl)-2-propyl-2,3-dihydro-1H-pyrrolo[3,4-b]quinolin-1-one] | 26.8 nM | 0.55
COc1ccc(CN2Cc3nc4c(-c5cccc(OC)c5F)cccc4c(N)c3C2=O)cc1 [9-amino-5-(2-fluoro-3-methoxyphenyl)-2-(4-methoxybenzyl)-2,3-dihydro-1H-pyrrolo[3,4-b]quinolin-1-one] | 8.03 nM | 0.36
CCCN1Cc2nc3c(-c4ccc(F)cc4F)cccc3c(N)c2C1=O [9-amino-5-(2,4-difluorophenyl)-2-propyl-2,3-dihydro-1H-pyrrolo[3,4-b]quinolin-1-one] | 14.9 nM | 0.39

Next, values leading:

Ki [1] | Relative Potentiation for GABAA1 (GABAA receptor α1β2γ2) | SMILES
19.7 nM | 0.5 | CCCCN1Cc2nc3c(-c4cccnc4OC)cccc3c(N)c2C1=O [9-amino-2-butyl-5-(2-methoxypyridin-3-yl)-2,3-dihydro-1H-pyrrolo[3,4-b]quinolin-1-one]
21.2 nM | 0.54 | CCCN1Cc2nc3c(-c4cccc(C#N)c4)cccc3c(N)c2C1=O [3-(9-amino-1-oxo-2-propyl-2,3-dihydro-1H-pyrrolo[3,4-b]quinolin-5-yl)benzonitrile]
16.3 nM | 0.38 | CCCN1Cc2nc3c(-c4cc(F)cnc4Cl)cccc3c(N)c2C1=O [9-amino-5-(2-chloro-5-fluoropyridin-3-yl)-2-propyl-2,3-dihydro-1H-pyrrolo[3,4-b]quinolin-1-one]
63 nM | 0.23 | CCCN1Cc2nc3c(-c4cncc(OC)c4)cccc3c(N)c2C1=O [9-amino-5-(5-methoxypyridin-3-yl)-2-propyl-2,3-dihydro-1H-pyrrolo[3,4-b]quinolin-1-one]
12.8 nM | 0.12 | CCCN1Cc2nc3c(-c4ccc(OC)cc4F)cccc3c(N)c2C1=O [9-amino-5-(2-fluoro-4-methoxyphenyl)-2-propyl-2,3-dihydro-1H-pyrrolo[3,4-b]quinolin-1-one]
89.8 nM | 0.96 | CCCN1Cc2nc3c(-c4cc(OC)c(OC)c(OC)c4)cccc3c(N)c2C1=O [9-amino-2-propyl-5-(3,4,5-trimethoxyphenyl)-2,3-dihydro-1H-pyrrolo[3,4-b]quinolin-1-one]
43.8 nM | 0.51 | CCCN1Cc2nc3c(-c4ccccc4)cccc3c(N)c2C1=O [9-amino-5-phenyl-2-propyl-2,3-dihydro-1H-pyrrolo[3,4-b]quinolin-1-one]
37.4 nM | 0.27 | CCCN1Cc2nc3c(-c4cccc(N(C)C)c4)cccc3c(N)c2C1=O [9-amino-5-(3-(dimethylamino)phenyl)-2-propyl-2,3-dihydro-1H-pyrrolo[3,4-b]quinolin-1-one]
80.7 nM | 0.37 | CCCN1Cc2nc3c(-c4ccc(C)cc4)cccc3c(N)c2C1=O [9-amino-2-propyl-5-(4-methylphenyl)-2,3-dihydro-1H-pyrrolo[3,4-b]quinolin-1-one]
36.5 nM | 0.32 | CCCN1Cc2nc3c(-c4cnc(OC)c(C)c4)cccc3c(N)c2C1=O [9-amino-5-(6-methoxy-5-methylpyridin-3-yl)-2-propyl-2,3-dihydro-1H-pyrrolo[3,4-b]quinolin-1-one]
10.4 nM | 0.25 | CCCN1Cc2nc3c(-c4ccc(OC)cc4C(F)(F)F)cccc3c(N)c2C1=O [9-amino-5-(4-methoxy-2-(trifluoromethyl)phenyl)-2-propyl-2,3-dihydro-1H-pyrrolo[3,4-b]quinolin-1-one]
